The values that follow come from patent US6986993B1, “System for cell-based screening” (Cellomics, Inc., priority 1999, dated 2006).

Read-outs that look alike come from different tables or passages of the source.

Series [1] has as its system PC12 cells. To be noted: 3 hours, 8 wells.
Series [2] has as its system PC12 cells. Briefly: cells. To be noted: Rattus norvegicus, PC-12, read-out: IC50 (50% inhibitory concentration) for dopamine toxicity to neurites.
Series [3] concerns glioblastoma cell line (SNB-19). As to the kind of experiment: High-content screen of drug-induced apoptosis, SNB-19 cells. Format: cell-based. To be noted: 26 h. The procedure:
Cell preparation. The cells chosen for this study were mouse connective tissue fibroblasts (L-929; ATCC CCL-1) and a highly invasive glioblastoma cell line (SNB-19; ATCC CRL-2219) (Welch et al., In Vitro Cell. Dev. Biol. 31:610, 1995). The day before treatment with an apoptosis inducing drug, 3500 cells were placed into each well of a 96-well plate and incubated overnight at 37° C. in a humidified 5% CO2 atmosphere. The following day, the culture medium was removed from each well and replaced with fresh medium containing various concentrations of paclitaxel (0–50 μM) from a 20 mM stock made in DMSO. The maximal concentration of DMSO used in these experiments was 0.25%. The cells were then incubated for 26 h as above. […]
(§1) Image acquisition and analysis on the ArrayScan System. The fluorescence intensity of intracellular MITOTRACKER® Red, Hoechst 33342, and BODIPY® FL phallacidin was measured with the cell screening system as described supra. […]
Calculations and output. A total of 50–250 cells were measured per image field. For each field of cells, the following calculations were performed: (1) The average nuclear area (μm^2) was calculated by dividing the total nuclear area in a field by the number of nuclei detected. (2) The average nuclear perimeter (μm) was calculated by dividing the sum of the perimeters of all nuclei in a field by the number of nuclei detected in that field. […]

Series [4] relates to mouse connective tissue fibroblasts (L-929). As to the kind of experiment: High-content screen of drug-induced apoptosis, L-929 cells. Format: cell-based. Here is the method:
Cell preparation. The cells chosen for this study were mouse connective tissue fibroblasts (L-929; ATCC CCL-1) and a highly invasive glioblastoma cell line (SNB-19; ATCC CRL-2219) (Welch et al., In Vitro Cell. Dev. Biol. 31:610, 1995). The day before treatment with an apoptosis inducing drug, 3500 cells were placed into each well of a 96-well plate and incubated overnight at 37° C. in a humidified 5% CO2 atmosphere. The following day, the culture medium was removed from each well and replaced with fresh medium containing various concentrations of paclitaxel (0–50 μM) from a 20 mM stock made in DMSO. The maximal concentration of DMSO used in these experiments was 0.25%. The cells were then incubated for 26 h as above. At the end of the paclitaxel treatment period, each well received fresh medium containing 750 nM MITOTRACKER® Red (Molecular Probes; Eugene, Oreg.) and 3 μg/ml Hoechst 33342 DNA-binding dye (Molecular Probes) and was incubated as above for 20 min. Each well on the plate was then washed with HBSS and fixed with 3.7% formaldehyde in HBSS for 15 min at room temperature. The formaldehyde was washed out with HBSS and the cells were permeabilized for 90 s with 0.5% (v/v) Triton X-100, washed with HBSS, incubated with 2 U ml^−1 BODIPY® FL phallacidin (Molecular Probes) for 30 min, and washed with HBSS. The wells on the plate were then filled with 200 μl HBSS, sealed, and the plate stored at 4° C. if Go necessary.
as §1
Calculations and output. A total of 50–250 cells were measured per image field. For each field of cells, the following calculations were performed: (1) The average nuclear area (μm^2) was calculated by dividing the total nuclear area in a field by the number of nuclei detected. (2) The average nuclear perimeter (μm) was calculated by dividing the sum of the perimeters of all nuclei in a field by the number of nuclei detected in that field. […] (3) The average nuclear brightness was calculated by dividing the integrated intensity of the entire field of nuclei by the number of nuclei in that field. […] (4) The average cellular brightness was calculated by dividing the integrated intensity of an entire field of cells stained with MITOTRACKER® dye by the number of nuclei in that field. […] (5) The average cellular brightness was also calculated by dividing the integrated intensity of an entire field of cells stained with BODIPY® FL phallacidin dye by the number of nuclei in that field. […]

Series [5] has as its system NF-KB transcription factor. Briefly: NF-KB cytoplasm to nucleus translocation screen (NucCyt Difference). Format: cell-based. To be noted: human cell line, wells titrated with IL-1; FIG. 16. The procedure:
The distribution of the transcription factor is determined by labeling the nuclei with a DNA specific fluorophore like […] and the transcription factor with a specific fluorescent antibody. After autofocusing on the Hoechst labeled nuclei, an image of the nuclei is acquired in the cell-based screening system and used to create a mask by one of several optional thresholding methods, as described supra. The morphological descriptors of the regions defined by the mask are compared with the user defined parameters and valid nuclear masks are identified and used with the following method to extract transcription factor distributions. Each valid nuclear mask is eroded to define a slightly smaller nuclear region. The original nuclear mask is then dilated in two steps to define a ring shaped region around the nucleus, which represents a cytoplasmic region. The average antibody fluorescence in each of these two regions is determined, and the difference between these averages is defined as the NucCyt Difference. […] Using these two sampling regions, data on nuclear translocation can be automatically analyzed by the cell-based screening system on a cell by cell basis. […]

Take `NCCc1ccc(O)c(O)c1` [dopamine]: the “Neurite Outgrowth Index (mean +/− standard deviation)” value in the series on PC12 cells [1] (dopamine 0.05 mM) is listed as 43 +/− 4%; in the series on PC12 cells [1] (dopamine 0.1 mM), 37 +/− 3%; in the series on PC12 cells [1] (dopamine 0.2 mM) it was 37 +/− 3%; in the series with PC12 cells [1] (dopamine 0.4 mM), 25 +/− 3%; with PC12 cells [1] (dopamine 0.8 mM), 17 +/− 2%; in the series with PC12 cells [1] (dopamine 1.6 mM) it was 11 +/− 2%. For the same molecule, in the series on PC12 cells [2], the IC50 is 460 µM.

`CC(=O)O[C@H]1C(=O)[C@@]2(C)[C@H]([C@H](OC(=O)c3ccccc3)[C@]3(O)C[C@H](OC(=O)[C@H](O)[C@@H](NC(=O)c4ccccc4)c4ccccc4)C(C)=C1C3(C)C)[C@]1(OC(C)=O)CO[C@@H]1C[C@@H]2O` [paclitaxel]: in series [3], the “Concentration at which area, brightness and fragmentation of the nucleus and actin polymerization reached a maximum value” is recorded as 10 nM; the “Concentration at which mitochondrial potential was minimal” value was 10 nM. Besides, the “Concentration giving maximal response in many parameters” value in series [4] (L-929 cells, 26 h) is 5 µM. The Mitochondrial potential result in series [4] (L-929 cells, all concentrations tested (0–50 μM)) is on record as “did not show a sharp decrease in mitochondrial potential”. In addition, the Nuclear morphology entry in series [4] (L-929 cells, increasing amounts, 26 h, FIG. 24) was “caused nuclei to enlarge and fragment”. In addition, the “Dose for maximal response in L-929 relative to SNB-19 cells” value in series [4] (L-929 versus SNB-19) stood at 500 fold.

B1: IL-1: a known inducer of the NF-KB transcription factor (protein, UniProt P01583 113-271, looked up)
Interleukin-1 alpha: SAPFSFLSNVKYNFMRIIKYEFILNDALNQSIIRANDQYLTAAALHNLDEAVKFDMGAYKSSKDDAKITVILRISKTQLYVTAQDEDQPVLLKEMPEIPKTITGSETNLLFFWETHGTKNYFTSVAHPNLFIATKQDYWVCLAGGPPSITDFQILENQA
With B1, in series [5], the “NucCyt Difference (NF-KB nuclear translocation) versus amount of agonist” value is “strongly correlated with the amount of agonist added to the wells”.
